Experimental data: patent US20230372542A1, “COMPOSITION AND METHODS FOR MODULATING TCF4 GENE EXPESSION AND TREATING PITT HOPKINS SYNDROME” (The Regents of the University of California, priority 2020, published 2023)

System: CtOs or sPOs
Assay: Wnt signaling manipulation in brain organoids (size, immunostaining, single cell RNA-Seq)
Format: cell-based, human
Procedure: Immunofluorescence staining. After being cultured in vitro for the required amount of time, CtOs and sPOs were fixed with 4% paraformaldehyde for 4-8 h at 4° C. and cryoprotected in 30% sucrose for 12 h. Organoids were then embedded in TissueTek (Leica Microsystems) and sectioned on a Leica VT1000S cryostat to produce 20 μm sections. For staining, slides were air dried for 10 min, permeabilized in […] for 2 min, and blocked with […] for 1 h at 25° C., followed by incubation with primary antibodies in the same solutions, for 16 h at 4° C. […] After further washes in 1×PBS, slides were counterstained with DAPI solution (1 μg/mL) for 45 min and mounted with ProLong Gold. All images were taken using a Zeiss fluorescence microscope equipped with Apotome (Axio Observer Apotome, Zeiss). For projections of z series stacked images of DCX-stained organoids, the maximum intensity feature of ZEN software (Zeiss) was used, after collecting 10 optical slices per section. For p16^INK4a staining, antigen retrieval was performed by incubating the slides at 60° C. for 10 min in 1× Universal HIER antigen retrieval reagent (Abcam; ab208572), followed by regular immunostaining. For counting SOX2+ cells after p16^INK4a co-staining (FIG. 15J), raw unprocessed images were used, and defined strongly stained cells as those which had average pixel intensity between the upper third quartile and the maximum pixel intensity in each image. Remaining SOX2+ cells were considered weakly stained.
For quantification of cell types in organoid sections, 4 random 100×100 μm regions of interest (ROI) were sampled across each imaged section. The mean number of labeled cells per sample was calculated by first averaging the number of labeled cells in each ROI to produce a mean value of labeled cells per section, and then averaging these mean values across all sections for each subject. […] The average percentage of pixels according to these rules was computed over four 100×100 μm ROIs per section and 6 sections per subject.
Organoid single cell RNA sequencing analysis. CtOs and sPOs were dissociated to produce a single cell suspension via a combination of mechanical dissociation with forceps and enzymatic digestion with Accutase for 10 min. For each library, a total of 15 organoids were dissociated and the resulting cells were pooled and subsequently filtered to isolate single cells for RNA sequencing analysis on the same day. Dissociated cells were pelleted (3 min, 100× g, 4° C.) and resuspended in 10 mL of Neurobasal medium. […] Single cell RNA-seq libraries were prepared using the Chromium Single Cell 3′ v3 Library kit (10× Genomics) according to the manufacturer's protocol. Approximately 20,000 cells were loaded per sample on the Chromium chip. All steps, including GEM (Gel beads in emulsion) preparation, reverse transcription, PCR amplification, and Illumina library construction were carried out on a T100 thermal cycler (Bio-Rad). cDNA extracted from GEMs was cleaned up using MyOne Silane Beads (Thermo Fisher Scientific), PCR-amplified for a total of 10 cycles, and then purified using SPRIselect Reagent Kit (B23317, Beckman Coulter). Next, the cDNA pool was enzymatically fragmented for each library and a double size selection was performed using the SPRIselect Reagent Kit. Finally, Illumina adapters were ligated to prepare libraries for sequencing, followed by another round of double size selection with the SPRIselect Reagent Kit. […] Illumina libraries were quantified using Qubit dsDNA HS Assay Kit (Thermo Fisher Scientific) and size quality control was performed on a High Sensitivity D1000 tapestation (Agilent).

Compound: Cc1c[nH]c(-c2cnc(NCCNc3ccc(C#N)cn3)nc2-c2ccc(Cl)cc2Cl)n1 [CHIR99021]
- percentage of subpallial-type neural progenitors (CHIR99021-treated CtOs (FIG. 16H)): increased percentage
- progenitor population (single cell RNA-Seq) (CHIR99021-treated PTHS CtOs and sPOs (FIGS. 16G-H)): increase in the progenitor population
- neural rosettes (PTHS CtOs, CHIR99021): reappearance of conspicuous neural rosettes
- NPC content (SOX2+ cells) (PTHS CtOs, CHIR99021 1 μM (FIG. 9K)): significant increase
- organoid size (PTHS CtOs, CHIR99021 1 μM (FIG. 16F)): significant increase in organoid size
- TCF4 levels in neural progenitors of the organoid's 3D structure (PTHS sPOs, CHIR (FIG. 16J)): do not exhibit an increase in TCF4 levels
- expression of subpallial markers (GAD1, GAD2) (parent and PTHS CHIR99021-treated organoids (FIG. 16I)): higher
- progenitor content (parent organoids, CHIR (FIG. 9K)): does not lead to an increase
- organoid size (parent organoids, CHIR (FIG. 16F)): does not lead to an increase
